Assay results reported in the supplement of paper PMC8960247.
± gives the standard error.

Key:
621-102 (TSC2-deficient) [1] = experiment: relative viability vs DMSO; higher = less cytotoxic; conditions: serum: 10% FBS, 72 h
621-103 (TSC2-rescued) = experiment: as above; conditions: serum: 10% FBS, 72 h
621-102 (TSC2-deficient) [2] = experiment: relative viability vs DMSO (fraction); higher = less cytotoxic; conditions: serum: 0.1% FBS, 72 h
UMB1949 (TSC2-deficient) = experiment: as above; conditions: serum: 0.1% FBS, 72 h;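 further: renal angiomyolipoma cell lines screened in 384-well plates, viability normalized per plate to DMSO-treated cells, each plate carrying 50 nM rapamycin and 1 µM staurosporine controls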

SMILES	relative viability (621-102 (TSC2-deficient) [1]; 0.0001 µM) [%]	relative viability (621-102 (TSC2-deficient) [1]; 0.001 µM) [%]	relative viability (621-102 (TSC2-deficient) [1]; 0.01 µM) [%]	relative viability (621-102 (TSC2-deficient) [1]; 0.1 µM) [%]	relative viability (621-102 (TSC2-deficient) [1]; 1 µM) [%]	relative viability (621-102 (TSC2-deficient) [1]; 10 µM) [%]	relative viability (621-103 (TSC2-rescued); 0.0001 µM) [%]	relative viability (621-103 (TSC2-rescued); 0.001 µM) [%]	relative viability (621-103 (TSC2-rescued); 0.01 µM) [%]	relative viability (621-103 (TSC2-rescued); 0.1 µM) [%]	relative viability (621-103 (TSC2-rescued); 1 µM) [%]	relative viability (621-103 (TSC2-rescued); 10 µM) [%]	relative viability (621-102 (TSC2-deficient) [2]; 0.0128 nM)	relative viability (621-102 (TSC2-deficient) [2]; 0.064 nM)	relative viability (621-102 (TSC2-deficient) [2]; 0.32 nM)	relative viability (621-102 (TSC2-deficient) [2]; 1.6 nM)	relative viability (621-102 (TSC2-deficient) [2]; 8 nM)	relative viability (621-102 (TSC2-deficient) [2]; 40 nM)	relative viability (621-102 (TSC2-deficient) [2]; 200 nM)	relative viability (621-102 (TSC2-deficient) [2]; 1000 nM)	relative viability (621-102 (TSC2-deficient) [2]; 5000 nM)	relative viability (UMB1949 (TSC2-deficient); 0.0128 nM)	relative viability (UMB1949 (TSC2-deficient); 0.064 nM)	relative viability (UMB1949 (TSC2-deficient); 0.32 nM)	relative viability (UMB1949 (TSC2-deficient); 1.6 nM)	relative viability (UMB1949 (TSC2-deficient); 8 nM)	relative viability (UMB1949 (TSC2-deficient); 40 nM)	relative viability (UMB1949 (TSC2-deficient); 200 nM)	relative viability (UMB1949 (TSC2-deficient); 1000 nM)	relative viability (UMB1949 (TSC2-deficient); 5000 nM)
Nc1cccc2c1C(=O)N(C1CCC(=O)NC1=O)C2=O (stereo not given) [Pomalidomide]	107 ± 1.1	112 ± 1.7	108 ± 3.3	116 ± 1.5	118 ± 2.1	118 ± 4	104.77 ± 0.07	102.3 ± 0.72	101.3 ± 0.69	96.9 ± 1.3	98.59 ± 0.92	100.7 ± 0.95	1.18	0.947	1.03	0.975	0.951	1.02	0.939	0.985	0.951	1.06	0.959	1.04	1.03	1.18	1.04	1.07	0.943	0.912
Cn1c(Nc2ccc(C(F)(F)F)cc2)nc2cc(Oc3ccnc(-c4ncc(C(F)(F)F)[nH]4)c3)ccc21 [RAF265]	111 ± 3.9	107 ± 4.3	101 ± 2.5	92.9 ± 1.1	60.4 ± 1.5	41.5 ± 2	99.71 ± 0.95	102 ± 2.3	100.7 ± 0.72	92.7 ± 2.6	78.2 ± 2.2	64.1 ± 0.7	1.01	1.13	1.04	1.07	0.927	0.488	0.0802	0.0481	0.00102	1.1	1.02	1.13	1.06	1.19	1.11	0.216	0.00279	0.00183
CCCCc1nc2cc(/C=C/C(=O)NO)ccc2n1CCN(CC)CC [SB939]	106 ± 2.5	116 ± 4.8	108.59 ± 0.1	96.3 ± 2	71.42 ± 0.65	35.9 ± 0.61	98.4 ± 1.2	97.63 ± 0.65	96.6 ± 2.1	96.7 ± 1.1	46.1 ± 2.5	2.74 ± 0.067	1.27	0.957	0.868	0.884	0.789	0.608	0.351	0.121	0.00937	1.04	1.11	1.25	1.22	1.03	0.31	0.0114	0.00881	0.00358
